The target of series [1] is T1, FcDH (Gluconobacter thailandicus, UniProt A0ABQ0IZX0). The series is described as follows: Bivalent metal ion specificity of FcDH. Type of series: biochemical, Gluconobacter oxydans IFO 3255.
The target in series [2] is T1, FcDH. In words: Oxidation products of substrates by purified FcDH, HPLC. Type of series: biochemical, Gluconobacter oxydans IFO 3255. The note with it: 0.5 g/dl substrate, NOX, catalase, 30° C., 16 hours. Here is the method:
Among the substrates recognized by FcDH, the oxidation product of L-fucitol is L-fuculose, and the oxidation products of the other substrates were examined. The substrates used were D-arabitol, D-mannitol and D-sorbitol. A reaction solution containing 0.5 g/dl of the substrate, 50 mM Gly-NaOH (pH 9.5), 1 mM NAD, 30 mM FAD, 5 mM MgCl2, 0.6 U/ml purified FcDH, 0.2 U/ml NOX, and 0.1 mg/ml catalase was reacted at 30° C. for 16 hours, and analyzed by HPLC (FIG. 13).

In another series the target is NOX (NADH oxidase) (Gluconobacter thailandicus, UniProt A0ABQ0IUG6). In words: NOX activity: NADH/NADPH and flavin coenzyme specificity. The class given is biochemical, Gluconobacter oxydans IFO 3255. To be noted: for NOX activation effect of flavin coenzyme: flavin 0 to 300 μM, FIG. 19. Here is the method:
(§1) The change in absorbance in the first minute was taken as an initial rate, and the activity was calculated therefrom. The experimental group without the enzyme source was used as a blank. […] The measurement was taken three consecutive times. Their mean value was taken and is shown in the figure with the standard deviation.
The concentration of flavin in the reaction solution was 0 to 300 μM, and the others were adjusted to standard conditions.
The Km value for the substrate was calculated by measuring the activity with a variety of substrate concentrations and drawing a Lineweaver-Burk plot of the results.

Series [3] addresses T2, FcDH (L-fuculose-producing L-fucitol dehydrogenase) (Gluconobacter thailandicus, UniProt A0ABQ0IZX0).
T2 sequence (A0ABQ0IZX0 1-257): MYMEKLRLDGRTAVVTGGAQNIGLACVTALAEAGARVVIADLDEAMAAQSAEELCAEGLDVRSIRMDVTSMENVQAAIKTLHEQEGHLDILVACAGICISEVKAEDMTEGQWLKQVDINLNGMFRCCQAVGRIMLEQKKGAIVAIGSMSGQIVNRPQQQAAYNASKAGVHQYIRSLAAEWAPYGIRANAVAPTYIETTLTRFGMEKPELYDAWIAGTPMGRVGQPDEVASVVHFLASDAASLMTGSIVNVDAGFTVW
In words: Substrate specificity of purified FcDH (kcat, Km by Lineweaver-Burk plot). To be noted: for substrate concentration at which a reduction of the specific activity (inhibition by the substrate) was observed: FIG. 12. The class given is biochemical, Gluconobacter oxydans IFO 3255. Here is the method:
The measurement was started when NAD was added. […] The measurement was performed consecutively three times.
Values of kcat and Km for each substrate were obtained by measuring the initial rate of the reaction with various substrate concentrations and drawing a Lineweaver-Burk plot of the results.
Lineweaver-Burk plots of the results in (A) and (B) are shown in FIG. 12 (C) and (D), respectively. The Km and kcat values were calculated from the range in which substrate inhibition was not observed, i.e., from a straight line represented by a broken line in FIG. 12 (C) and (D).

Series [4] has as its system L-fucitol dehydrogenase in cell free extract of G. oxydans IFO 3255 sldA:Kmr mutant strain. The series is described as follows: NAD(P)-dependent L-fucitol oxidation activity in cell free extract. The class given is biochemical, Gluconobacter oxydans IFO 3255 sldA:Kmr. On the procedure:
Subsequently, 1 ml of the medium was added to 50 ml of the same liquid medium, and cultured at 30° C. for 18 hours using a 500 ml Sakaguchi flask. The microbial cells were collected by centrifuging this medium, washed with 9 g/l of NaCl, and sonicated with 200 W for 10 minutes to yield the disrupted microbial cells. These cells were further centrifuged at 15,000 g for 15 minutes to yield the supernatant, which was then used as a cell-free extract. […] The experiment was also performed without L-fucitol as the control.

How the values of series [5] were obtained: as §1
As pH buffers, sodium citrate buffer (pH 3.6, 4.7, 5.7), sodium acetate buffer (pH 4.8, 5.7), potassium phosphate buffer (pH 6.4, 7.2), Tris-HCl buffer (pH 6.7, 7.6, 8.5), and CAPS-NaOH buffer (pH 8.3, 9.5) were used.
(§2) The activity of the purified preparations of rFcDH and rNOX that had been purified as described above was also measured.

Substrate in series [6]: NC(=O)c1ccc[n+]([C@@H]2O[C@H](COP(=O)([O-])OP(=O)(O)OC[C@H]3O[C@@H](n4cnc5c(N)ncnc54)[C@H](O)[C@@H]3O)[C@@H](O)[C@H]2O)c1
In words: NAD and NADP specificity of FcDH. Type of series: biochemical, Gluconobacter oxydans IFO 3255. The note with it: other: FcDH, Lineweaver-Burk plot, FIG. 14; pH 9.5; 30.0 °C.

The procedure of series [7]: The measurement was started when NAD was added. The change in absorbance in the first minute was taken as the initial rate, and the activity was calculated therefrom. […] The measurement was performed consecutively three times. Their mean value was taken and is shown in the figure with the standard deviation.
As pH buffers, sodium acetate buffer (pH 4.8, 5.7), potassium phosphate buffer (pH 6.4, 7.2), Tris-HCl buffer (pH 6.7, 7.6, 8.5), CAPS-NaOH buffer (Sodium cyclohexylaminopropanesulfonate) (pH 8.3, 9.5) and sodium carbonate buffer (pH 10.1, 10.7, 11.2) were used.
A solution containing 0.1M pH buffer and 80 μg/ml purified FcDH was left to stand on ice for 30 minutes, and subsequently the solution was diluted to a final FcDH concentration of 1.6 μg/ml. The reaction was performed under standard conditions, and the remaining FcDH activity was measured.
A solution containing Gly-NaOH (pH 9.5), MgCl2, fucitol, and purified FcDH was preincubated at each temperature (25, 30, 37, 45, 55, or 65° C.) for 3 minutes, and then NAD that had been separately preincubated at each temperature was added thereto to start the reaction. The final concentrations in the reaction solution were adjusted to the standard conditions for activity measurement, and the final concentration of FcDH was 1.6 μg/ml.
A solution containing Gly-NaOH (pH 9.5) and 80 μg/ml purified FcDH was left to stand at 0, 25, 30, 37, 50 or 60° C. for 30 minutes. The solution was then diluted so that the final concentration of FcDH was 1.6 μg/ml. The reaction was performed under standard conditions, and the remaining FcDH activity was measured. The remaining activity of FcDH measured at each temperature is reported (FIG. 11) as the relative percentage as compared to the remaining activity when left to stand at 0° C.
as §2
This is another data set of the same source.

The mark [8] stands for this setting: 5 mM bivalent metal ion or EDTA.
Setting [9] is: 5 mM bivalent metal ion or EDTA, relative to specific activity with MnCl2.
The mark [10] stands for this setting: substrate, Lineweaver-Burk plot.

Read-outs that look alike come from different tables or passages of the source.

Take `[Cl][Ni][Cl]` [NiCl2]: the “effect on FcDH activity” value on FcDH [1] (setting [8]) is given as “no effect”. The “RELATIVE ACTIVITY (%)” value at FcDH [1] (setting [9]) is listed as 42.4 ± 0.7%.

As for `O=S(=O)([O-])[O-].[Zn+2]` [ZnSO4], the “effect on FcDH activity” value at FcDH [1] (setting [8]) is reported as “inhibitory effect”. Further, the “RELATIVE ACTIVITY (%)” value on FcDH [1] (setting [9]) is 11.7 ± 0.5%.

As to `[Cl-].[Cl-].[Mg+2]` [MgCl2], on FcDH [1] (setting [8]), the “effect on FcDH activity” value is reported as “activation effect”. Moreover, the “RELATIVE ACTIVITY (%)” value at FcDH [1] (setting [9]) is given as 93.7 ± 2.9%.

As for `OC[C@@H](O)[C@@H](O)[C@H](O)[C@@H](O)CO` [D-SORBITOL, D-sorbitol], the “oxidation product identified by HPLC” value on FcDH [2] is on record as “L-sorbose”.

Consider `NC(=O)C1=CN([C@@H]2O[C@H](COP(=O)(O)OP(=O)(O)OC[C@H]3O[C@@H](n4cnc5c(N)ncnc54)[C@H](OP(=O)(O)O)[C@@H]3O)[C@@H](O)[C@H]2O)C=CC1` [NADPH], for which, at NOX (NADH oxidase) (data not shown), the “NOX activity with NADPH as the substrate” value was “no significant activity”.

As for `[Cl][Mn][Cl]` [MnCl2], at FcDH [1] (setting [8]), the “effect on FcDH activity” value is reported as “activation effect”. Besides, at FcDH [1] (setting [9]), the “RELATIVE ACTIVITY (%)” value amounted to 100.0 ± 6.9%.

Consider `C[C@H](O)[C@@H](O)[C@@H](O)[C@H](O)CO` [L-FUCITOL, L-fucitol], for which the “substrate concentration at which a reduction of the specific activity (inhibition by the substrate) was observed” value in series [3] is given as at least 100 mM. For the same molecule, the Dehydrogenase activity in series [4] (coenzyme NAD, pH 6.0) is 3.1 ×10^−3 U/mg; in series [4] (coenzyme NAD, pH 8.8), 18.4 ×10^−3 U/mg; in series [4] (coenzyme NADP, pH 6.0) it was 0.0 ×10^−3 U/mg; in series [4] (coenzyme NADP, pH 8.8), 1.9 ×10^−3 U/mg.

Take `OC[C@@H](O)[C@@H](O)[C@H](O)[C@H](O)CO` [D-MANNITOL, D-mannitol]: at FcDH [2], the “oxidation product identified by HPLC” value is “D-fructose”.

Consider `[Ca+2].[Cl-].[Cl-]` [CaCl2], for which the “effect on FcDH activity” value at FcDH [1] (setting [8]) is given as “activation effect”. In addition, the “RELATIVE ACTIVITY (%)” value on FcDH [1] (setting [9]) is given as 89.9 ± 3.4%.

As for `Cc1cc2nc3c(=O)[nH]c(=O)nc-3n(C[C@H](O)[C@H](O)[C@H](O)CO)c2cc1C` [riboflavin], the “NOX activation effect of flavin coenzyme” value on NOX (NADH oxidase) is on record as “NOX activation effect was observed”.

Consider `[Cl][Cu][Cl]` [CuCl2], for which the “effect on FcDH activity” value on FcDH [1] (setting [8]) was “inhibitory effect”. Also, on FcDH [1] (setting [9]), the “RELATIVE ACTIVITY (%)” value is reported as 5.0 ± 0.5%.

For the molecule `[Cl-].[Cl-].[Co+2]` [CoCl2], on FcDH [1], the “RELATIVE ACTIVITY (%)” value worked out at 34.8 ± 1.1% and the “effect on FcDH activity” value is on record as “no effect”.

`OCC(O)CO` [GLYCEROL, glycerol]: in series [3] (setting [10]), the Kcat was 0.9 U · mg−1 and the Km turned out to be 10.1 mM.

As for `Cc1cc2nc3c(=O)[nH]c(=O)nc-3n(C[C@H](O)[C@H](O)[C@H](O)COP(=O)(O)O)c2cc1C` [FMN], the “NOX activation effect of flavin coenzyme” value at NOX (NADH oxidase) is given as “relatively weaker”.

Consider `OC[C@@H](O)C(O)[C@H](O)CO` [D-ARABITOL, D-arabitol], for which the “substrate concentration at which a reduction of the specific activity (inhibition by the substrate) was observed” value in series [3] is recorded as at least 5 mM. On FcDH [2], the “oxidation product identified by HPLC” value is “D-ribulose and D-xylulose”.

B1: NOX: NADH oxidase purified from G. oxydans IFO 3255, SEQ ID NO:18 (protein)
chain: MTILNEQDFRRAMSHFATGVAVVTAKGSEGEQGATISALTSVSLDPLLLLICLHRGSSTYKAIAEAGRFGLSILNNSHKDVAMLFASRTADKFGSDVVVRAEDGTAFIDGALVQMHCELVETFQGGTHALFMARPTSITVRDEAPLLYFQGQLGVEA
modifications: Gluconobacter oxydans
As to B1, the “remaining activity (temperature stability)” value in series [5] (0.5 h) is at least 80%. Moreover, the “pH of maximum specific activity” value in series [5] (FIG. 15, 30° C.) was found to be 5.7. Besides, the “temperature of maximum specific activity” value in series [5] (FIG. 17, pH 8.0) stood at 37 °C. Moreover, in series [5] (buffer, 0.5 h, pH 8.8), the “remaining activity (pH stability)” value is listed as at least 80%. Besides, in series [5] (purified preparation, 0.2 mM NADH, 30 μM FAD, pH 8.0, 30° C.), the “specific activity of NOX” value is on record as 196 U/mg.

B2: FcDH (Gluconobacter thailandicus NBRC 3257) (protein)
chain: MYMEKLRLDGRTAVVTGGAQNIGLACVTALAEAGARVVIADLDEAMAAQSAEELCAEGLDVRSIRMDVTSMENVQAAIKTLHEQEGHLDILVACAGICISEVKAEDMTEGQWLKQVDINLNGMFRCCQAVGRIMLEQKKGAIVAIGSMSGQIVNRPQQQAAYNASKAGVHQYIRSLAAEWAPYGIRANAVAPTYIETTLTRFGMEKPELYDAWIAGTPMGRVGQPDEVASVVHFLASDAASLMTGSIVNVDAGFTVW
Regarding B2, the Km in series [6] stood at 0.20 mM.

B3: FcDH: L-fuculose-producing L-fucitol dehydrogenase purified from G. oxydans IFO 3255, SEQ ID NO:16 (protein)
chain: MYMEKLRLDGRTAVVTGGAQNIGLACVTALAEAGARVVIADLDEAMAAQSAEELCAEGLDVRSIRMDVTSMENVQAAIKTLHEQEGHLDILVACAGICISEVKAEDMTEGQWLKQVDINLNGMFRCCQAVGRIMLEQKKGAIVAIGSMSGQIVNRPQQQAAYNASKAGVHQYIRSLAAEWAPYGIRANAVAPTYIETTLTRFGMEKPELYDAWIAGTPMGRVGQPDEVASVVHFLASDAASLMTGSIVNVDAGFTVW
modifications: Gluconobacter oxydans
As to B3, in series [7] (0.5 h), the “remaining activity (temperature stability)” value was at least 80%. The “pH of maximum specific activity” value in series [7] (FIG. 8, 30° C.) amounted to 9.5. Also, the “temperature of maximum specific activity” value in series [7] (FIG. 10, pH 9.5) was 37 °C. Further, the “remaining activity (pH stability)” value in series [7] (buffer, 0.5 h, pH 7.2) is recorded as at least 80%. In series [7] (purified preparation, 10 mM L-fucitol, 1 mM NAD, pH 9.5, 30° C.), the “specific activity of FcDH” value is on record as 7.8 U/mg.

These data come from patent US7575910B2, “Method for producing L-fuculose and method for producing L-fucose” (priority 2004, dated 2009).
